Measurements: patent publication US7566737B2 (Genfit, priority 2002, dated 2009)

Columns and labels:
LDL = test: Protection against LDL oxidation by copper (conjugated diene formation); assay type: biochemical; details: for lag phase of conjugated diene formation / rate of conjugated diene formation: 10^−4M; for antioxidant properties on LDL oxidation by copper (in words): FIGS. 1-1 to 1-14
Description: LDL oxidation is an important alteration and plays a predominant role in the establishment and development of atherosclerosis (Jurgens G et al., 1987). […] Unless otherwise indicated, the reagents were from Sigma (St Quentin, France). LDL were prepared according to the method described by (Havel R J et al., 1955). The solutions of test compounds were prepared at 10^−2 M concentration in bicarbonate buffer (pH 9) and diluted in PBS to obtain final concentrations ranging from 0.1 to 100 μM for a total ethanol concentration of […]. Prior to oxidation, EDTA was removed from the LDL preparation by dialysis. Oxidation then took place at 30° C. by addition of 100 μl of 16.6 μM CuSO4 solution to 160 μL of LDL (125 μg protein/ml) and 20 μl of a test compound solution. The formation of dienes, the species under observation, was followed by measuring optical density at 234 nm in the samples treated with the compounds but in the presence or absence of copper. Optical density at 234 nm was measured every 10 minutes for 8 hours in a thermostated spectrophotometer (Tecan Ultra 380). The compounds were considered to have antioxidant activity when they induced a longer lag phase and reduced the rate of oxidation and the amount of dienes formed in comparison with the control sample.

human PPARα = molecular target: T1, human PPARα (Homo sapiens, UniProt Q07869); test: PPARα/Gal4 transactivation system; assay type: cell-based; details: for maximum induction factor: at the 10 or 1 μm concentrations
T1 construct: expressed in transfected cells; host or cells: RK13 or COS-7
T1 sequence (Q07869 239-466 limits assumed): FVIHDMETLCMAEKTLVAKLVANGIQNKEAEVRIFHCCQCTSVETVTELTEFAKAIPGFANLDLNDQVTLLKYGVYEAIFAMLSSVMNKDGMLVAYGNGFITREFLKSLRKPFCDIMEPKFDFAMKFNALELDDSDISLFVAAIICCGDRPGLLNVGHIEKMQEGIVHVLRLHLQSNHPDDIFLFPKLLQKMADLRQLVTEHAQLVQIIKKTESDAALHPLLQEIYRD
Description: PPAR activation was tested in vitro in RK13 or COS-7 fibroblast cell lines by measuring the transcriptional activity of chimeras composed of the DNA binding domain of the yeast Gal4 transcription factor and the ligand binding domain of the different PPARs. These latter results were then confirmed in cell lines according to the following protocols.
Culture protocols: RK13 were from ECACC (Porton Down, UK) and were grown in DMEM medium supplemented with 10% (V/V) fetal calf serum, 100 U/ml penicillin (Gibco, Paisley, UK) and 2 mM L-glutamine (Gibco, Paisley, UK). COS-7 cells were from ATCC and were grown in DMEM medium supplemented with 10% (V/V) fetal calf serum, 1% penicillin/streptomycine (Biochrom, AG), 1% of amino acids (Gibco) and 1% sodium pyruvate (Gibco).
The culture medium was changed every two days. Cells were kept at 37° C. in a humidified 95% air/5% CO2 atmosphere.
Description of plasmids used for transfection: The plasmids Gal4(RE)_TkpGL3, pGal4-hPPARα, pGal4-hPPARγ, pGal4-hPPARδ and pGal4-φ have been described in the literature (Raspe E et al., 1999). The pGal4-hPPARα, pGal4-hPPARγ and pGal4-hPPARδ constructs were obtained by cloning into the pGal4-φ vector PCR-amplified DNA fragments corresponding to the DEF domains of the human PPARs nuclear receptors.
Transfection of RK13: RK13 cells were seeded in 24-well culture dishes at 5×10^4 cells/well and transfected for 2 hours with the reporter plasmid Gal4(RE)_TkpGL3 (50 ng/well), the expression vectors pGal4-φ, pGal4-hPPARα, pGal4-hPPARγ and pGal-hPPARδ (100 ng/well) and the transfection efficiency control vector pRL-CMV (1 ng/well) according to the previously described protocol (Raspe E, Madsen L, Lefebvre A M, Leitersdorf I, Gelman L, Peinado-Onsurbe J, Dallongeville J, Fruchart J C, Berge R and Staels B, 1999), then incubated for 36 hours with the test compounds. RK13 cells were incubated with the different compounds at concentrations of 10, 30 and 100 μM or 1, 10 and 100 μM for 24 hours. At the end of the experiment, the cells were lysed (Gibco, Paisley, UK) and luciferase activity was determined with a Dual-Luciferase™ Reporter Assay System kit (Promega, Madison, Wis., USA) according to the supplier's instructions. The protein content of the cell extracts was then measured with the Bio-Rad Protein Assay (Bio-Rad, Munich, Germany) as directed by the supplier.
Transfection of COS7: Cells in suspension are transfected, in the presence of 10% (V/V) fetal calf serum, with 150 ng of DNA per well with a pGal4-PPAR/Gal4(RE)_TkpGL3 ratio of 1/10. Cells are then seeded in 96 well plates (4×10^4 cells/well) and incubated for 24 hours at 37° C. Activation with compounds is performed on 24 hours at 37° C. in culture medium without serum. At the end of the activation period, cells are lysed and luciferase activity is determined, using the Steady Glow Luciferase Kit (Promega), according to the supplier's instructions.

[1] = tested on: hApoE2 Knock-in transgenic mice; test: Effects on triglycerides and cholesterol metabolism in vivo; set-up: species or system mouse
Description: Treatment of animals: hApoE2 knock-in transgenic mice were kept on a 12-hour light/dark cycle at a constant temperature of 20±3° C. After a 1 week acclimation, mice were separated in groups of 6 animals selected such that the distribution of their body weight and plasmatic lipid levels determined before the experiment were uniform. The test compounds were suspended in carboxymethylcellulose and administered by intragastric gavage at the indicated doses, once a day for 7 or 8 days. Animals had access to food and water ad libitum. At the end of the experiment the animals were weighed and sacrificed under anesthesia. Blood was collected on EDTA. Plasma was prepared by centrifugation at 3000 rpm for 20 minutes. Organs were harvested, frozen in liquid nitrogen and stored at −80° C. for subsequent analysis.
Measurement of serum lipids: Serum lipid concentrations (total cholesterol and triglycerides) were determined by a colorimetric assay (Boehringer, Mannheim, Germany) according to the supplier's instructions.

HaCat cells = test: Antioxidant properties on cell cultures (carboxy-H2DCFDA fluorescence, AAPH stress), keratinocytes; assay type: cell-based, human; details: compounds at 25 μM for 24 h, AAPH 750 μM
Description: (§1) The reduction in the intensity of the emitted fluorescence signal was determined in cells treated with the compounds in the following manner.
(§2) Prior to stress the cells with an oxidative agent such as AAPH (CAS number 2997-92-4), cells are incubated with compounds of interest at 25 μM for 24 h. Then the culture medium is discarded and cells are rinsed two times with PBS. Cells are then incubated 30 min at 37° C. with a cell-permeant indicator for reactive oxygen species that is nonfluorescent until the acetate groups are removed by intracellular esterases and oxidation occurs within the cell 5-(and-6)-carboxy-2′,7′-dichlorodihydrofluorescein diacetate (carboxy-H2DCFDA). The probes are prepared in PBS and incubated at the final concentration of 25 μM. After the incubation with the probe, cells are rinsed and incubated another 30 min with the oxidative solution containing AAPH at 750 μM in culture medium without phenol red and serum.
(§3) The fluorescence is then measured with a fluorimeter with the following wavelength, […].
(§4) Two different cell types have been tested with the inventive compounds. Human normal primary fibroblasts and HaCat cells which are a human keratinocyte cell line.

[2] = tested on: Human normal primary fibroblasts; test: Antioxidant properties on cell cultures (carboxy-H2DCFDA fluorescence, AAPH stress), fibroblasts; assay type: cell-based; details: compounds at 25 μM for 24 h, AAPH 750 μM
Description: as §1, §2, §3, §4

[3] = FIG. 1-9, copper alone 80 minutes
[4] = FIG. 1-12, copper alone 120 minutes

For `Cc1cc(/C=C/C(=O)c2ccc(Br)cc2O)cc(C)c1OC(C)(C)C(=O)O` [Compound 25, 1-[2-hydroxy-4-bromophenyl]-3-[3,5-dimethyl-4-carboxydimethylmethyloxyphenyl]prop-2-en-1-one], the “lag phase of conjugated diene formation” value (LDL; FIG. 1-7, copper alone 82 minutes) was 120 min and the “maximum amount of conjugated dienes formed” value (“maximum amount” for short) (LDL; FIG. 1-8, copper alone 393) was 378 nmol per mg of LDL.

`Cc1cc(-c2cc(=O)c3ccc(Cl)cc3o2)cc(C)c1OC(C)(C)C(=O)O` [Compound 35, 2-(3,5-dimethyl-4-carboxydimethylmethyloxyphenyl)-7-chloro-4H-1-benzopyran-4-one] was tested, and the “lag phase of conjugated diene formation” value (LDL; [3]) was 149 min and the “rate of conjugated diene formation” value (LDL; FIG. 1-10, copper alone 1.9) was 1.5 nmol/min/mg of LDL.

With `COc1cc(Cl)ccc1C(=O)/C=C/c1cc(C)c(OC(C)(C)C(=O)O)c(C)c1` [Compound 37, 1-[2-methyloxy-4-chlorophenyl]-3-[3,5-dimethyl-4-carboxydimethylmethyloxyphenyl]prop-2-en-1-one] the “lag phase of conjugated diene formation” value (LDL; [4]) was 196 min, the “rate of conjugated diene formation” value (LDL; FIG. 1-13, copper alone 1.8) was 1.49 nmol/min/mg of LDL and the “maximum amount” value (LDL; FIG. 1-14, copper alone 372) was 338 nmol per mg of LDL. For the same molecule, the maximum induction factor (human PPARα) was 27.

With `COc1cc(/C=C/C(=O)c2ccc(Cl)cc2O)cc(OC)c1OC(C)(C)C(=O)O` [Compound 6, 1-[2-hydroxy-4-chlorophenyl]-3-[3,5-dimethoxy-4-carboxydimethylmethyloxyphenyl]prop-2-en-1-one] the “antioxidant properties on LDL oxidation by copper (in words)” value (shortened to “antioxidant properties on LDL oxidation”) (LDL) was “antioxidant properties”.

In the case of `CCCCCCCc1ccc(C(=O)/C=C/c2cc(C)c(OC(C)(C)C(=O)OC(C)(C)C)c(C)c2)cc1` [Compound 38, 1-[4-heptylphenyl]-3-[3,5-dimethyl-4-tertbutyloxycarbonyldimethylmethyloxyphenyl]prop-2-en-1-one], the “lag phase of conjugated diene formation” value (LDL; [4]) is reported as 284 min, the “rate of conjugated diene formation” value (LDL; FIG. 1-13, copper alone 1.8) is reported as 0.71 nmol/min/mg of LDL and the “maximum amount” value (LDL; FIG. 1-14, copper alone 372) is reported as 244 nmol per mg of LDL. For the same molecule, the maximum induction factor (human PPARα) was 22.

For `CCCCCCOc1ccccc1C(=O)/C=C/c1cc(C)c(OC(C)(C)C(=O)O)c(C)c1` [Compound 82, 1-[2-hexyloxyphenyl]-3-[3,5-dimethyl-4-carboxydimethylmethyloxyphenyl]prop-2-en-1-one], the plasma cholesterol ([1]; 50 mg/kg/day for 7 or 8 days, FIGS. 4-13, 4-15, 4-17, 4-19) was “decrease” and the plasma triglycerides ([1]; 50 mg/kg/day for 7 or 8 days, FIGS. 4-14, 4-16, 4-18, 4-20) was “decrease”.

For `COc1cc(/C=C/C(=O)c2ccccc2O)cc(OC)c1OC(C)(C)C(=O)O` [Compound 5, 1-[2-hydroxyphenyl]-3-[3,5-dimethoxy-4-carboxydimethylmethyloxyphenyl]prop-2-en-1-one], the “antioxidant properties on LDL oxidation” value (LDL) was “antioxidant properties”.

For `Cc1cc(/C=C/C(=O)c2ccccc2O)cc(C)c1OC(C)(C)C(=O)O` [Compound 11, 1-[2-hydroxyphenyl]-3-[3,5-dimethyl-4-carboxydimethylmethyloxyphenyl]prop-2-en-1-one], the “induction factor (luminescent signal relative to untreated cells)” value (human PPARα; 100 μM) was 10.

For `Cc1c(C)c2c(c(C)c1O)CCC(C)(C(=O)O)O2` (stereo not shown) [Trolox, reference compound], the “% of oxidative reduction versus control cells” value (HaCat cells) was 46% and the “% of oxidative reduction versus control cells” value [2] was 60%.

For `Cc1cc(/C=C/C(=O)c2ccc(Cl)cc2O)cc(C)c1OC(C)(C)C(=O)O` [Compound 7, 1-[2-hydroxy-4-chlorophenyl]-3-[3,5-dimethyl-4-carboxydimethylmethyloxyphenyl]prop-2-en-1-one], the “antioxidant properties on LDL oxidation” value (LDL) was “antioxidant properties”, the “cholesterol in lipoparticle subfraction (exclusion chromatography)” value ([1]; gavage 200 mg/kg for 7 days) was “decreased” and the “plasma concentration of cholesterol” value ([1]; gavage 200 mg/kg for 7 days) was “decrease”. The “plasma concentration of triglycerides” value ([1]; gavage 200 mg/kg for 7 days) was “decrease”, the “triglycerides in lipoparticle subfraction (exclusion chromatography)” value ([1]; gavage 200 mg/kg for 7 days) was “decreased” and the “induction factor (luminescent signal relative to untreated cells)” value (human PPARα; 30 μM) was 50.

With `COc1ccccc1C(=O)/C=C/c1cc(C)c(OC(C)(C)C(=O)O)c(C)c1` [Compound 31, 1-[2-methoxyphenyl]-3-[3,5-dimethyl-4-carboxydimethylmethyloxyphenyl]prop-2-en-1-one] the “lag phase of conjugated diene formation” value (LDL; [3]) was 139 min, the “rate of conjugated diene formation” value (LDL; FIG. 1-10, copper alone 1.9) was 1.6 nmol/min/mg of LDL and the “induction factor (luminescent signal relative to untreated cells)” value (human PPARα; 10 μM) was 15.5.
